Experimental data as given in patent US20150306096A1, “8'-HYDROXY-DIHYDROERGOTAMINE COMPOUNDS AND COMPOSITIONS” (MAP Pharmaceuticals, Inc., priority 2012, published 2015).

Key:
Neurokinin (NK1/NK2/NK3) = assay: Aequorin assay; type: cell-based, human; conditions: Neurokinin receptors
Method: (§1) Additional receptor agonist/agonist activity assessments were performed using the 8′-OH DHE test compound. Table 12 contains a summary of the cell lines (CHO-K1/HEK293 transfected with relevant human receptor) and the assays performed to detect any agonist or antagonist activity.
(§2) Aequorin assays were conducted to monitor activity for 8′-OH DHE against the receptors indicated in Table 12 above (except for mGlu3 and mGlu5). CHO-K1 cells co-expressing mitochondrial apoaequorin and the recombinant human receptor of interest were grown to mid-log phase in culture media without antibiotics and then detached with PBS-EDTA, centrifuged and resuspended in assay buffer (DMEMHAM's F12 with HEPES, without phenol red+0.1% BSA, protease free) at a concentration of 1×10^6 cell/mL. Cells were incubated at RT for at least 4 hours with coelenterazine h. Reference agonistant/agonist was tested to evaluate the performance of the assay and to determine EC50/IC50.
(§3) 50 μL of the cell suspension was mixed with 50 μL of test or reference agonist in a 96-well plate. The resulting emission of light was recorded using Hamamatsu Functional Drug Screening System 6000 (FDSS 6000) luminometer. For antagonist testing, 100 μL of the reference agonist at its EC80 was injected on the mix of cells and test compound, following an incubation of 15 minutes after the first injection. The resulting emission of light was recorded using the FDSS 6000 luminometer. To standardize the emission of recorded light (and determine of the ‘100% signal’) across plates and across different experiments, some wells contained 100 μM digitonin or a saturating concentration of ATP (20 μM).

[1] = tested on: VIP/PACAP (PAC1/VPAC1/VPAC2); assay: Aequorin assay; type: cell-based, human; conditions: VIP/PACAP receptors
Method: as §1, §2, §3

[2] = tested on: NMDA (NR1/NR2A/NR2B/NR2C/NR2D); assay: NMDA receptor Fluo-8 calcium FLIPR assay (agonist/antagonist); type: cell-based, human; conditions: NMDA receptors
Method: as §1
Studies for NMDA receptors (the NR1, NR2A, NR2B, NR2C and NR2D receptors) were conducted to monitor receptor activity of the test 8′-OH DHE compound using the Fluo-8 calcium kit and a Fluorescence Imaging Plate Reader (FLIPR^TETRA™) instrument. The following channels were evaluated: Cloned NMDA receptor (NR1/NR2A) channel (encoded by the GRIN1 and GRIN2A genes, co-expressed in HEK293 cells); Cloned NMDA receptor (NR1/NR2B) channel (encoded by the GRIN1 and GRIN2B genes, co-expressed in HEK293 cells); Cloned NMDA receptor (NR1/NR2C) channel (encoded by the GRIN1 and GRIN2C genes, co-expressed in HEK293 cells); and Cloned NMDA receptor (NR1/NR2D) channel (encoded by the GRIN1 and GRIN2D genes, transiently co-expressed in HEK293 cells).
For the agonist assessment, the effect of the test 8′-OH DHE compound was evaluated in the absence of the positive control agonist. The signal, elicited in the presence of the agonist (100 μM Glutamic acid+20 μM Glycine), was set to 100% activation and the signal in the presence of the vehicle control (Mg^2+-free HB-PS) was set to 0% activation. […]

Calcitonin (CGRP) = molecular target: T1, Calcitonin (CGRP) (Homo sapiens, UniProt O60894+Q16602); assay: Aequorin assay; type: cell-based; conditions: CGRP receptor
T1 construct: expressed in transfected cells; host or cells: CHO-K1 with apoaequorin (CHO-AEQ)
T1 sequence (Q16602 23-461): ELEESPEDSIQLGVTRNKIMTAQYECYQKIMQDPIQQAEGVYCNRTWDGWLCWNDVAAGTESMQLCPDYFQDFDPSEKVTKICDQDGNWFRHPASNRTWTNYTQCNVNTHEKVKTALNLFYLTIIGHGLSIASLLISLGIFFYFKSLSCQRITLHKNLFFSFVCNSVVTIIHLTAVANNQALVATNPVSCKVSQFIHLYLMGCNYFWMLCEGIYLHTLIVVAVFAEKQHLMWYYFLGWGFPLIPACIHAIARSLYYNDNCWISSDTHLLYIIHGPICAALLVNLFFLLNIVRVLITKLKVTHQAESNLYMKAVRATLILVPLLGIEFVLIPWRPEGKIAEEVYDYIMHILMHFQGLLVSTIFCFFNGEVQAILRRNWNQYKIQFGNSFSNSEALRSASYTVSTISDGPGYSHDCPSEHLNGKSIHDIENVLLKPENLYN
T1 sequence (O60894 27-148 partner): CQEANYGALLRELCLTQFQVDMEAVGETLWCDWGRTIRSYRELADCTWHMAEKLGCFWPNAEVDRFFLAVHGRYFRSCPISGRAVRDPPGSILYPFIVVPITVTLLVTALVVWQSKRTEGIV
Method: as §1
as §2, with “Reference agonistant/agonist was tested to evaluate the performance of the assay and to determine EC50/IC50.” left out
as §3, with “For antagonist testing, 100 μL of the reference agonist at its EC80 was injected on the mix of cells and test compound, following an incubation of 15 minutes after the first injection.” left out

[3] = molecular target: T2, human Serotonin 5-HT1D receptor (Homo sapiens, UniProt P28221); assay: GTPγS functional assay; type: biochemical; conditions: read-out: Functional activity (agonist)
T2 construct: purchased Euroscreen
T2 sequence (P28221 whole entry): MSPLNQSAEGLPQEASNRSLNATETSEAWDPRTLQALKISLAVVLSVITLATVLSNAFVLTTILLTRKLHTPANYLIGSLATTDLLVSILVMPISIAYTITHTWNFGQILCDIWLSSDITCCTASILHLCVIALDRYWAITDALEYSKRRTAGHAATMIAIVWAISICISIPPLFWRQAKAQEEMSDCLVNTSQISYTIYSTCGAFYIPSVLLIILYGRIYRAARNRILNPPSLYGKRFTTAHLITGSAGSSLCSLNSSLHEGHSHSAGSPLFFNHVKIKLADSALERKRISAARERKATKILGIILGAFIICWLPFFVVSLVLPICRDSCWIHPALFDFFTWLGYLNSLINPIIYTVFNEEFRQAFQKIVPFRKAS
Method: Functional profiling of agonist and antagonist activities of 8′-OH DHE on human Adrenergic α1D, Dopamine D2L, and Serotonin 5-HT1B, 5-HT1D, 5-HT1F, 5-HT3, 5-HT4e and 5-HT5A receptors (compared against the parent (DHE) molecule) was carried out as follows.
The SPA 35S-GTPγS tests were conducted with Euroscreen membrane preparations […]. The HTRF assays were conducted with recombinant cell lines. The receptor accession numbers, cellular background and reference compounds are as reported below in Table 10.
(3) 8′-OH DHE was tested for agonist and antagonist activity at the human Serotonin 5-HT1B and Serotonin 5-HT1D receptors using GTPγS assay (in triplicate) at the following nanomolar concentrations: […]
The assay procedure was carried out as follows. […] The plates were then centrifuged for 10 minutes at 2,000 rpm and counted for 1 min/well with a Perkin Elmer TopCount reader.
Agonist activity of the test compounds was expressed as a percentage of the activity of the reference agonist at its EC100 concentration. Antagonist activity of the test compounds was expressed as a percentage of the inhibition of the reference agonist activity at its EC80 concentration. Dose-response data from the test compounds were analyzed with XLfit (IDBS) software using nonlinear regression applied to a sigmoidal dose-response model and the following equation: […]

[4] = subcutaneous, 1.5 mM; cited from earlier work

CN1C[C@H](C(=O)N[C@]2(C)O[C@@]3(O)[C@@H]4CCC(O)N4C(=O)[C@H](Cc4ccccc4)N3C2=O)C[C@@H]2c3cccc4[nH]cc(c34)C[C@H]21 (stereo partly drawn) [8′-OH DHE, 8′-Hydroxy-Dihydroergotamine]
Activity (Agonism: EC50; Antagonism: IC50) (Neurokinin (NK1/NK2/NK3)): Inactive | Activity (Agonism: EC50; Antagonism: IC50) [1]: Inactive | Activity (Agonism: EC50; Antagonism: IC50) [2]: Inactive | Activity (Agonism: EC50; Antagonism: IC50) (Calcitonin (CGRP)): Inactive | EC50 [3]: 0.49 nM

CN1C[C@H](C(=O)N[C@]2(C)O[C@@]3(O)[C@@H]4CCCN4C(=O)[C@H](Cc4ccccc4)N3C2=O)C[C@@H]2c3cccc4[nH]cc(c34)C[C@H]21 [DHE, Dihydroergotamine]
nausea, share of treated patients [4]: ~16%
